Test results taken from US20250128203A1, “MODIFIED REDOX-ACTIVE SORBENTS FOR ELECTROCHEMICAL CARBON DIOXIDE SEPARATION” (The Johns Hopkins University, priority 2023, published 2025).
Several values for one entry are separate records, joined by “and”; a condition that tells them apart may be missing. Equal entries are not always repeated. Where two headings read alike, the source gives them in different places.

What was measured:
[1] = CO2 binding constant (KCO2) calculated from the shift of the second reduction peak in CV; details: for K[CO2] / logK[CO2]: DMF; for ΔEpeak(2): difference between the second reduction peak potentials (IId·−/IId2−) in CO2 and N2
Protocol: (§1) Electrochemical measurements were conducted using a BioLogic VSP potentiostat (BioLogic Science Instruments). For the cyclic voltammetry measurements, glassy carbon (Ø=3 mm) was used as the working electrode, platinum wire was used as the counter electrode, silver wire was used as the pseudo-reference electrode and ferrocene was used as the internal reference. In a standard cyclic voltammetry measurement, the molecule of interest (2.5 mM) was dissolved in anhydrous DMF with 100 mM NBu4PF6 as the supporting salt. Typical cyclic voltammograms were collected at a scan rate of […]. To study the effects of ionic species on the redox behaviour of the sorbent molecules, 100 mM LiClO4, NaClO4, KClO4, NBu4ClO4, sodium triflate (NaOTf), or sodium bis(trifluoromethanesulfonyl)imide (NaTFSI) was used as the supporting electrolyte salt.
The CO2 binding constant (KCO2) was calculated by Eq 1: […]

[2] = UV-vis absorption, optical band gap; type: physicochemical; details: UV-vis absorption (Kubelka-Munk spectra)
Protocol: UV-vis absorption spectra were recorded on a Thermo Scientific Genesys 10S UV-vis spectrophotometer.

[3] = Cyclic voltammetry of isoindigos in DMF (half-wave redox potentials under N2 or CO2); type: physicochemical; details: for E1/2 (IId/IId·−) in N2: Table 1, first electron transfer, N2, DMF; for E1/2 in N2 (first): first half-wave potential vs. Fc^+/Fc; for E1/2 in N2 (first) / E1/2 in N2 (second) / E1/2 in CO2 (first or single) / E1/2 in CO2 (second): 2.5 mM in DMF; for E1/2 in N2 (first) / E1/2 in N2 (second): 0.1 M NBu4PF6, N2, 298 K; for E1/2 in N2 (second) / E1/2 in CO2 (second): second half-wave potential vs. Fc^+/Fc; for E1/2 in CO2 (first or single) / E1/2 in CO2 (second): 0.1 M NBu4PF6, CO2, 298 K
Protocol: as §1

[4] = DMF, cited from earlier work; for E1/2 (1) in CO2: first half-wave potential; for E1/2 (1) in CO2 / E1/2 (2) in CO2 / E1/2 (2) in N2: vs. Fc^+/Fc; for E1/2 (1) in CO2 / E1/2 (2) in CO2: under CO2; for E1/2 (2) in CO2 / E1/2 (2) in N2: second half-wave potential; for E1/2 (2) in N2: under N2

SMILES	K[CO2] ([1]; 298 K)	logK[CO2] ([1]; 298 K)	logK[CO2] ([1]; Table 1)	ΔEpeak(2) [1]	Optical band gap [2]	E1/2 (IId/IId·−) in N2 [3]	Experimental 1st half-wave potential in N2 ([3]; Table 5, vs. Fc^+/Fc)	E1/2 in N2 (first) [3]	E1/2 in N2 (second) [3]	E1/2 in CO2 (first or single) ([3]; vs. Fc^+/Fc)	E1/2 in CO2 (second) [3]	logKCO2 [4]	logKCO2 ([4]; listed as anthraquinone)	E1/2 (1) in CO2 [4]	E1/2 (2) in CO2 [4]	E1/2 (2) in N2 [4]
O=C1Nc2ccccc2/C1=C1\C(=O)Nc2ccc(Br)cc21 [5BIId, 5-Bromoisoindigo]	1.12e+09 M⁻¹	9.05	9.05	0.494 V	2.04 eV	−1.19 V vs. Fc^+/Fc	−1.19 V	−1.19, V	−1.67 V	−1.11 V	–	–	–	–	–	–
COc1ccc2c(c1)/C(=C1\C(=O)Nc3ccc([N+](=O)[O-])cc31)C(=O)N2 [5M5NIId, 5-Methoxyl-5′-nitroisoindigo]	4.45e+08 M⁻¹	8.65	–	0.470 V	1.71 eV	–	–	−1.08 V and −1.08, V	−1.55 V	−1.08 V	–	–	–	–	–	–
COC(=O)c1ccc2c(c1)NC(=O)/C2=C1/C(=O)Nc2ccc([N+](=O)[O-])cc21 [5N6MCIId, Methyl-5-nitroisoindigo-6-carboxylate]	41500 M⁻¹	4.62	–	0.232 V	2.08 eV	–	–	−0.93 V and −0.93, V	−1.40 V	−0.94, V	−1.15 V	–	–	–	–	–
O=C1Nc2ccccc2/C1=C1\C(=O)Nc2ccc([N+](=O)[O-])cc21 [5NIId, 5-Nitroisoindigo]	7.63e+08 M⁻¹	8.88	–	0.484 V	2.07 eV	–	–	−1.08 V and −1.08, V	−1.57 V	−1.08 V	–	–	–	–	–	–
COC(=O)c1ccc2c(c1)NC(=O)/C2=C1/C(=O)Nc2cc(Br)ccc21 [6B6MCIId, Methyl 6-bromoisoindigo-6′-carboxylate]	8.34e+08 M⁻¹	8.92	–	0.486 V	2.02 eV	–	–	−1.05, V	−1.55 V	−1.05 V	–	–	–	–	–	–
O=C1Nc2ccccc2/C1=C1\C(=O)Nc2cc(Br)ccc21 [6BIId, 6-Bromoisoindigo]	6.25e+09 M⁻¹	9.8	–	0.538 V	2.05 eV	–	–	−1.21, V	−1.75 V	−1.14 V	–	–	–	–	–	–
O=C1Nc2ccccc2/C1=C1\C(=O)Nc2cc(C(=O)O)ccc21 [6CIId, Isoindigo-6-carboxylic Acid]	750 M⁻¹	2.87	–	0.129 V	2.01 eV	–	–	−1.09, V	−1.35 V	−1.06, V	−1.18 V	–	–	–	–	–
O=C1Nc2ccc(F)cc2/C1=C1\C(=O)Nc2ccc(F)cc21 [55DFIId, 5,5′-Difluoroisoindigo]	9.13e+09 M⁻¹	9.96	–	0.547 V	1.97 eV	–	–	−1.14, V	−1.69 V	−1.13 V	–	–	–	–	–	–
COc1ccc2c(c1)/C(=C1\C(=O)Nc3ccc(OC)cc31)C(=O)N2 [55DMIId, 5,5′-Dimethoxylisoindigo]	1.13e+09 M⁻¹	9.05	9.05	0.494 V	1.78 eV	−1.29 V vs. Fc^+/Fc	–	−1.29 V and −1.29, V	−1.76 V	−1.2 V	–	–	–	–	–	–
O=C1Nc2cc(F)c(F)cc2/C1=C1\C(=O)Nc2cc(F)c(F)cc21 [5566TFIId, 5,5′,6,6′-Tetrafluoroisoindigo]	2.17e+10 M⁻¹	10.3	–	0.570 V	2.02 eV	–	–	−1.10, V	−1.68 V	−1.1 V	–	–	–	–	–	–
O=C1c2ccccc2C(=O)c2ccccc21 [AQ, anthraquinone]	–	–	–	–	–	–	–	–	–	–	–	13.39	approximately 13.4	−1.4 V	−1.4 V	−2.15 V
CCCOC(=O)c1ccc2c(c1)C(=O)c1ccccc1C2=O [AQ-COO- C3H7]	–	–	–	–	–	–	–	–	–	–	–	2.56	–	−1.29 V	−1.89 V	−2 V
O=C1c2ccccc2C(=O)c2cc(Cl)ccc21 [AQ-Cl]	–	–	–	–	–	–	–	–	–	–	–	2.73	–	−1.25 V	−1.88 V	−2 V
CCCOc1ccc2c(c1)C(=O)c1ccccc1C2=O [AQ-O-C3H7]	–	–	–	–	–	–	–	–	–	–	–	11.70	–	−1.55 V	−1.55 V	−2.2 V
O=C1C=C(Cl)C(=O)C(Cl)=C1 [BQ-Cl2]	–	–	–	–	–	–	–	–	–	–	–	1.86	–	−0.7 V	−1.59 V	−1.66 V
O=C1C(Cl)=C(Cl)C(=O)C(Cl)=C1Cl [BQ-Cl4]	–	–	–	–	–	–	–	–	–	–	–	1.28	–	−0.48 V	−1.38 V	−1.42 V
O=C1C=CC(=O)C=C1 [BQ]	–	–	–	–	–	–	–	–	–	–	–	18.12	–	−0.95 V	−0.95 V	−1.98 V
CC1=C(C)C(=O)C(C)=C(C)C1=O [DBQ]	–	–	–	–	–	–	–	–	–	–	–	17.61	–	−1.39 V	−1.39 V	−2.39 V
CCCCC(CC)CN1C(=O)/C(=C2/C(=O)N(CC(CC)CCCC)c3ccccc32)c2ccccc21 (stereo not shown) [NNDEHIId, N,N′-Di-(2-ethylhexyl)-isoindigo]	4.19e+06 M⁻¹	6.62	–	0.350 V	2.00 eV	–	–	−1.23, V	−1.80 V	−1.16, V	−1.45 V	–	–	–	–	–
CC(C)(C)C1=CC(=O)C=C(C(C)(C)C)C1=O [TBQ]	–	–	–	–	–	–	–	–	–	–	–	18.29	–	−1.25 V	−1.25 V	−2.29 V
O=C1C(Cl)=C(Cl)C(=O)c2ccccc21 [p-NQ-Cl2]	–	–	–	–	–	–	–	–	–	–	–	2.73	–	−0.9 V	−1.63 V	−1.75 V
O=C1C=CC(=O)c2ccccc21 [p-NQ]	–	–	–	–	–	–	–	–	–	–	–	14.74	–	−1.23 V	−1.23 V	−2.06 V
